# Measurements: US20260273076A1, “PHARMACEUTICAL COMPOSITIONS AND METHOD OF TREATMENT OF METASTATIC AND OTHER CANCERS” (Favorite Pharmaceuticals, priority 2023, published 2026)
# Read-outs that look alike come from different tables or passages of the source.
# Assays:
# [1] = tested on: PDX derived cell line models (pancreatic cancer patients) in co-culture with human dermal fibroblasts; assay: Cypre 3D Oncology in vitro patient-derived xenograft (PDX) Panel (Example 11); type: cell-based; details: treated four days, 5 patients
# Description: In this example, a Cypre PDX assay was carried out in 5 different pancreatic cancer patients using 5 test compounds. […] The endpoint from this assay was tumor size and DRAQ7 staining.
# PDX Tumor cells were expanded in 2D cell culture and then grown in 3D hydrogels, co-embedded with human dermal fibroblasts (HDF). […] After, 3D assays were stained with Hoechst and DRAQ7, fixed, and analyzed using a high content imager and proprietary image analysis software.
# HCT-116 spheroids = assay: HCT-116 spheroid viability / mitochondrial staining, high-content imaging (Example 1); type: cell-based; details: 72 hours
# Description: Monolaurin was also similarly compared as a non-pegylated Lauric acid control.
# HCT-116 cells were cultured according to ATCC guidelines and spheroids containing the cells were incubated in plate maps. […] After 72 hours of incubation, the images were taken at 10× with a 25-step z-stack in […] on a Molecular Devices imager.
# On the day of dosing, C12 (C12=C12-Ether-PEG-1000), C-18 (C18=C18-amide-PEG-1000) and monolaurin were reconstituted in DMSO to make stock solutions of 60 mM. Lauric Acid and Polyethylene Glycol were also reconstituted in DMSO to make stock solutions of 120 mM. C-12, C-18 and monolaurin stock solutions were then serially diluted at half-log steps in DMSO and then diluted 100× in maintenance media. Lauric Acid and monomethoxy polyethylene glycol MW 1000 (PEG) were serially diluted in DMSO and then diluted 200× in maintenance media. Dosing done according to manufacturer's protocol.
# DMSO concentrations were kept consistent across all wells at 0.5%. Following dosing, Plate 1 & 2 were incubated in a 37° C., 5% CO2 incubator for 72 hours. Plate 1 was removed from incubation between 60 and 180 min timepoints for imaging. Well A05 in Plate 1 was imaged in bright field at 10× while incubated in the imager at 37° C. Images were taken at 5-minute intervals for 120 mins. Following imaging, Plate 1 was immediately placed back into 37° C., 5% C02 incubator. […]
# HCT-116 cells = details: HCT-116 2-D, 72 hours
# Description: Cells were incubated for 72 hours in a 37° C./5% CO2 incubator. […] At the conclusion of the 72-hour timepoint, cells were labeled with 6 μL/mL MitoTracker Deep Red and 1:250 Viability Dye.
# Following labeling, cells were fixed in 10% neutral buffer formalin and permeabilized with 0.2% Triton X-100 in 1×PBS. Cells were then labeled with 1:500 Hoechst 33342 Ready Flow™ Reagent And 5 μL/mL Alexa Fluor 488 phalloidin.
# Cells were then imaged at 20× widefield using a Molecular Devices ImageXpress Micro Confocal High-Content imaging platform. The scan laser/dichromic settings were tuned for 405, 488, 647, and 730 nm excitation wavelengths. Images were acquired and saved as 16-bit 2048×2048 TIF files for further processing. A grid of the sites at well centers was acquired during image capture.
# The images were then analyzed using nuclear, phalloidin, and MitoTracker Channels. The number of cells was determined for each. Viable and non-viable cells were determined using colocalization of the nuclear channel and the viability dye images after thresholding. Phalloidin and MitoTracker cell object intensity distributions were quantified using cellular objects positive for phalloidin and MitoTracker. Statistical analysis was performed using GraphPad Prism statistical software. Nonlinear regression was used as a curve fitting tool to determine compound efficacy.
# [2] = tested on: human pancreatic cancer (BXPC3) cells
# Description: In this example, human pancreatic cancer (BXPC3) cells were grown on microscope slides for 24 hours prior to administration of test articles. […] Imaging was at 10× with photographs taken once every five minutes.
# The timeline proceeds from left to right.
# BXPC3 cells = tested on: BXPC3 cells
# Source text: Molecular crowding occurs when high concentrations of macromolecules reduce the volume of solvent available for other molecules in the solution, effecting the properties of cellular water. […] An increase in dry mass on addition of drug to the cells reflects uptake of the conjugate into the intracellular space. […] The method has been used to evaluate a dose response relationship and the characteristic response patterns of specific cell types to selected polyethylene glycol fatty acid conjugated structures.
# [3] = tested on: human pancreatic cancer (BX PC3) cells; details: 200 micromolar, 24 hours
# [4] = tested on: A549, HL-60, Raji B, Panc-1, and PC3 cancer cell lines; details: 4-5 h period, 5 cell lines
molecule,measurement,setting,value
"CCCCCCCCCCCCCCCCCCNc1c(NCCOCCOCCOCCOCCOCCOCCOCCOCCOCCOCCOCCOCCOCCOCCOCCOCCOCCOCCOCCOCCOCCOC)c(=O)c1=O [C18-Squaramide-PEG-1000, 3-((2,5,8,11,14,17,20,23,26,29,32,35,38,41,44,47,50,53,56,59,62,65-docosaoxa-heptahexacontan-67-yl)amino)-4-(octadecylamino)cyclobut-3-ene-1,2-dione]",Tumor Total area: activity in comparison,[1],similarity in activity
CCCCCCCCCCCC(=O)O [Lauric Acid],"effect on cell viability, treatment vs control",HCT-116 spheroids,no difference between treatment and control
polyethylene glycol octadecyl ether [C18-Ether-PEG-1000],MitoTracker intensities,HCT-116 cells,modest effect
same,concentration at which total cell death / death of all the cells occurred,HCT-116 cells,50 µM
same,effects on cell viability,HCT-116 cells,strong effects on cell viability
same,effect on cells,"[2]; 100 μM and 200 μM, 24 hours of incubation",drastic with both concentrations
same,cell kill at lower vs higher concentration,"[2]; 100 μM vs 200 μM, 24 hours",less cell kill at the lower concentration
same,effect on a cluster of cells,"[2]; 200 μM, 1-hour period",membrane disruption and cell death
same,time to cell fragmentation after dosing,"[2]; 200 uM, single cell",≤ 60 min
same,time post dosing to membrane disruption leading to cell death,BXPC3 cells,≤ 40 min
same,drop of cell mass,BXPC3 cells; first study (FIG. 17A),3 fold
same,time post dosing of phase drop in dry mass,BXPC3 cells; first study (FIG. 17A),30 to 50 min
same,"cell mass decrease, factor",BXPC3 cells; repeat study (FIG. 17D),2
same,time of major phase drop after the addition of the drug,BXPC3 cells; repeat study (FIG. 17D),about 25 minutes
same,number of cells in clusters vs no drug control,[3],significantly reduced
same,cell death,[4]; 50 μM,80%
same,cell death,[4]; 100 μM,100%
polyethylene glycol octadecyl ether [C18-Ether-PEG-5000],MitoTracker intensities,HCT-116 cells,no effects
same,concentration at which total cell death / death of all the cells occurred,HCT-116 cells,100 µM
same,cell destruction vs no drug control,"[2]; 300 μM, 24 hours of incubation",completely destroyed
same,effect on existing cell mass / clusters,"[2]; 300 μM, after 19 hours",dissociation of the accumulated mass and loss of cellular motility and death
same,kill kinetic,"[2]; BXPC3, 300 μM (Example 3)",19 h
same,DRAQ7 cell death assay: activity in comparison with standard of care,[1],equal to standard of care
same,Tumor Total area: activity in comparison,[1],equal to standard of care
